SMILES strings stand for the structures. Where “and” joins values, the source holds several entries; their conditions need not be identical. Equal values may be shown once.

This assay concerns P. falciparum 3D7 growth, pLDH absorbance. The assay can be described thus: P. falciparum 3D7 growth inhibition, dose response, strain 3D7 (AID 2305).

As to `CN(C)C(CNC(=O)c1cc(-c2ccncc2)c(-c2ccc(NC(=O)Nc3ccccc3)cc2)o1)c1ccccc1` (stereo unspecified), the concentration for half-maximal inhibition (IC50) (as a rule, the concentration that gives 50% inhibition) came out at 600 nM.
Under `COc1cccc(/C=C/C(=O)NC2CCC(CN3CCC(c4c[nH]c5ccccc45)CC3)CC2)c1` (stereo unspecified) stands 830 nM and 770 nM; under `N#Cc1ccc2c(c1)CCN(CCC1CCC(NC(=O)/C=C/c3ccc(F)c4ccccc34)CC1)CC2` (stereo unspecified), 840 nM; under `Cc1nc(N)nc(N)c1CCCOc1ccc(Br)cc1`, 490 nM.
Under `OCCN1CCN(C(=S)NC2CCCCC2)CC1` stands 1100 nM; under `CC(C)CN(C)Cc1ccc(-c2ccc(-c3nc4ccccc4[nH]3)s2)cc1`, 750 nM; under `NC(=O)c1cccc(C(=O)Nc2ccc(-c3cccc(-c4nc5ccc(F)cc5[nH]4)c3)cc2)c1`, 870 nM.
Next, `COc1ccc(C(=O)NC(Nc2ccc([N+](=O)[O-])cc2)C(Cl)(Cl)Cl)cc1` (stereo unspecified): 1070 nM; `CCCN1CCN(c2ccc(NS(=O)(=O)c3ccc(C(=O)Nc4ccc(Cl)cc4)cc3)cc2)CC1`: 1110 nM.
With `CC1(C)CC(NC(=O)NC2CCN(Cc3ccccc3)CC2)CC(C)(CNC(=O)NC2CCN(Cc3ccccc3)CC2)C1` (stereo unspecified), the half-maximal inhibitory concentration (IC50) is 950 nM.
Under `O=c1cc(NCCCNCc2cc(Cl)cc(Cl)c2OCc2ccc(Cl)cc2)[nH]c2ccccc12` stands 690 nM; under `O=C(c1ccccc1)N1CCC(CN2CCOC(c3ccccc3)(c3ccccc3)C2)CC1`, 500 nM; under `CCOC(=O)N1CCN(CCCNc2c3ccc(Cl)cc3nc3ccc(OC)cc23)CC1`, 100 nM.
Next, `CN1CCN(CCCSc2ccc3c(c2)ncn3-c2cc(OCc3ccccc3C(F)(F)F)c(C(N)=O)s2)CC1`: 440 nM; `O=S(=O)(NCCN1CCCC1)c1ccc(-c2ccccc2CNC2Cc3ccccc3C2)cc1`: 850 nM; `COc1ccc2nc(-c3ccc(C(=O)NCCCN4CCN(c5cc(Cl)ccc5OC)CC4)cc3OC)[nH]c2c1`: 870 nM.
Under `c1cncc(Oc2ccc(Nc3ccnc4cc(-c5cccc(CN6CCCCC6)c5)ccc34)cc2)c1` stands 120 nM; under `COc1ccc(Cl)cc1N1CCN(CCCNC(=O)c2ccc(-c3nc4cc5ccccc5cc4[nH]3)c(F)c2)CC1`, 800 nM.
For `CN(C(=O)Nc1ccc(C(F)(F)F)cc1)C1CCN(CCCCCNC(=O)/C=C/c2ccc(Cl)c(Cl)c2)CC1`, the concentration for half-maximal inhibition (IC50) is 330 nM.
Next, `c1ccc(CN2CCC(NCc3ccc(-c4cncc5ccccc45)cc3)CC2)cc1`: 880 nM.
In turn, `COc1ccc2ncc(F)c(CCN3C[C@H](CNCc4ccc5c(c4)OCCO5)[C@H](O)C3)c2n1` came in with an IC50 of 930 nM.
Next, `CO/C(=C\C=C\c1cc2cc(Cl)c(Cl)cc2[nH]1)C(=O)NC1CCN(CCCc2ccccc2)CC1`: 770 nM; `CCc1cn2c3c(cc(C(=O)N[C@@H](Cc4ccccc4)[C@H](O)CNC4CCC4)cc13)N(C)S(=O)(=O)CC2`: 100 nM.
Next, `c1cncc(CNc2ncc(-c3ccsc3)c(-c3nccs3)n2)c1`: 1380 nM.
In the case of `O=C(/C=C/c1ccc(Cl)cc1Cl)N1CCC(CCN2CCC(c3c[nH]c4ccccc34)CC2)CC1`, the 50% inhibitory concentration (IC50) worked out at 800 nM.
Next, `COc1ccc2nccc([C@@H](O)CN3CCC(NCc4ccc5c(c4)NC(=O)C(C)(C)O5)CC3)c2c1`: 400 nM; `NC1(C(=O)O)Cc2ccc(Cl)cc2C1` (stereo unspecified): 730 nM.
Next, `NCC1CCCN1Cc1ccc(-c2ccc(-c3nc4ccc(C(F)(F)F)cc4[nH]3)cc2)cc1` (stereo unspecified): 960 nM; `C=CCc1ccccc1OCC(O)CN(C1CCCCC1)C1CCCCC1` (stereo unspecified): 810 nM; `COc1ccc2nc3cc(Cl)ccc3c(NCCCO)c2c1`: 780 nM.
Molecule `Cc1cc(N(C)C)nc(Nc2ccc(NC(=O)C3CCCCC3)cc2)n1` showed an IC50 of 1110 nM.
The molecule `CC(C)CNCc1cccc(-c2ccc(CN(C(=O)NCCc3ccccc3)C3CCN(Cc4ccccc4)CC3)cc2)c1` gave a half-maximal inhibitory concentration (IC50) of 760 nM.
The molecule `Oc1ccc2nc(NCCCc3ccccc3)nc(NCCc3ccccc3)c2c1` showed a concentration for half-maximal inhibition (IC50) of 290 nM.
`CO/C(=C\C=C\c1cc2cc(Cl)c(Cl)cc2[nH]1)C(=O)NCCCN1CCN(c2cccc(OCC(=O)Nc3cccc(C(=O)c4ccccc4)c3)c2)CC1` came in with a half-inhibitory concentration (IC50) of 690 nM.
Under `CC(C)(C)c1ccc(OCC(=O)NC2CCN(c3ccnc4cc(Cl)ccc34)C2)cc1` (stereo unspecified) stands 130 nM.
As for `O=C(Nc1ccc(Cn2nc(Cl)c(N3CCCNCC3)cc2=O)cc1)c1ccc(-c2ccccc2)cc1`, the IC50 was 710 nM.
Under `O=C1C(c2ccccc2)=C(Nc2ccc([N+](=O)[O-])cc2)c2ccccc21` stands 870 nM; under `CCC(O)(C#Cc1c(C)nc(N)nc1N)CC`, 640 nM.
Under `O=C(Nc1ccc2c(c1)CCN2C1CCN(Cc2ccc(C(F)(F)F)cc2F)C1)c1ccco1` (stereo unspecified) stands 510 nM; under `Cc1c(F)cc(C(=O)NC2CC2)cc1-c1ccc2c(cnn2S(=O)(=O)c2ccc(F)c(F)c2)c1`, 270 nM; under `CCNc1cc(C(=O)N[C@@H](Cc2ccccc2Cl)[C@H](O)CNC2CCCCC2)cc(N2CCCCS2(=O)=O)c1`, 800 nM.
Next, `CCC(C)(C)c1ccc(N2C(N)=NC(N)=NC2(C)C)cc1`: 10 nM; `COc1cccc(CC(=O)N2CCC(n3c(C)nc4ccc(C)cc43)CC2)c1`: 110 nM; `COc1ccc(NC(=O)CCNc2cc(C)nc(NCc3cccc(C)c3)n2)cc1`: 1090 nM.
Molecule `Cc1cc(NC(=O)CCN2CCN(c3cccc(Cl)c3Cl)CC2)ccc1N1CCN(C(C)C)CC1` came in with an IC50 of 850 nM.
Next, `CCC(=Cc1cccc([N+](=O)[O-])c1)C(=O)NCC1CCN(c2nc(N)c3cc(OC)c(OC)cc3n2)CC1`: 240 nM; `CC1CCN(CC[C@H]2CCCN2S(=O)(=O)c2cccc(NC(=O)c3cc4ccccc4s3)c2)CC1`: 830 nM; `O=S(=O)(Nc1ccc(-c2ccc(CN3CCCC3)cc2)cc1)c1cccc2cccnc12`: 1020 nM.
Next, `OC1CCCN(Cc2cccc(-c3ccc(-c4nc5ccc(C(F)(F)F)cc5[nH]4)cc3)c2)C1` (stereo unspecified): 690 nM; `CC(Cc1ccc(OCCOc2ccccc2)cc1)NCC(O)c1cccc(Cl)c1` (stereo unspecified): 1040 nM; `CCN(CC)C(=O)c1cnc(-c2ccccc2)nc1Oc1cccc(Cl)c1`: 1160 nM.
Molecule `COc1ccc(C(=O)C2CCN(CCCCNC(=O)c3ccc(NC(=O)c4cc(Cl)cc(Cl)c4)cc3)CC2)cc1` registered an IC50 of 170 nM.
Next, `CN1C(=O)[C@H](NC(=O)[C@@H](Cc2ccccc2)NC(=S)Nc2ccccc2)N=C(c2ccccc2)c2ccccc21`: 860 nM; `COc1cc(Cc2cnc(N)nc2N)cc(OCCCCc2nn[nH]n2)c1OC`: 290 nM; `Oc1ccc(Cl)cc1CN1CCC(CCOC(c2ccccc2)c2ccc(Cl)cc2)CC1` (stereo unspecified): 390 nM.
Under `CN1CCN(CCCN(Cc2ccc(-c3ccc(CNCc4ccc5c(c4)OCO5)cc3)cc2)C(=O)Nc2ccccc2)CC1` stands 710 nM; under `COc1ccc2nc(N3CCN(C(=O)OC(C)(C)C)CC3)nc(NCCCc3ccccc3)c2c1`, 690 nM; under `O=C(CN1CCC(NCc2cnc(-c3ccc(Cl)cc3)[nH]2)CC1)N1CCc2ccccc21`, 650 nM.
`Cc1cc(-c2ccc(NC(=O)N3CCc4cc(Br)c(N5CCN(C)CC5)cc43)cc2)ccc1C#N` displayed an IC50 of 880 nM.
Next, `O=C(/C=C/c1ccc(Cl)c(Cl)c1)NCCCCCN1CCC(n2c(=O)[nH]c3ccccc32)CC1`: 870 nM.
Under `COc1cc2nc(N3CCN(C(=O)c4c(Cl)nsc4-c4ccccc4Cl)CC3)nc(N)c2cc1OC` stands 530 nM; under `CC(C)CNCc1ccc(OCc2cccc(COc3ccc(CNCC(C)C)cc3I)c2)c(I)c1`, 770 nM.
Next, `COCCC[C@H]1C(=O)O[C@H]2CCC[C@@H]21`: 700 nM.
On to `CN1CCC(N(C)C(=O)C=Cc2cn(-c3ccccc3)nc2-c2cc3ccccc3o2)CC1`, for which the IC50 came to 1340 nM.
Under `Cc1cnc2ccc(NS(=O)(=O)c3sc4ccc(Cl)cc4c3C)cc2c1N1CCNCC1` stands 810 nM; under `Brc1ccc(Nc2ccnc3cc(-c4nccs4)ccc23)cc1Oc1ccnc2cc(-c3nccs3)ccc12`, 1060 nM.
Under `CCOC(=O)NC1=NC(C)(C)N(OCc2ccc(Cl)c(Cl)c2)C(N)=N1` stands 40 nM; under `CN1CCC(N(Cc2ccc(-c3ccc(C(F)(F)F)cc3)nc2)C(=O)Cn2c(CCc3cccc(F)c3F)cc(=O)c3ccccc32)CC1`, 1100 nM; under `Oc1ccc(C=NNC(=S)Nc2cccc3ccccc23)c(O)c1`, 1040 nM.
Under `COc1cc(C=NNc2cc(C)nc3c(OC)cccc23)cc(OC)c1OC` stands 890 nM.
In turn, `Cc1cccc2[nH]c(-c3ccc(-c4ccc(CN5CCC(CCN6CCCCC6)CC5)cc4)cc3)nc12` returned an IC50 of 140 nM.
Under `COc1ccc(C(=O)c2ccc3[nH]cc(C4=CCN(C)CC4)c3c2)cc1` stands 1050 nM; under `Oc1ccc(-c2ccccc2)cc1CN1CCCCC1`, 900 nM; under `CCN(C)C(=O)n1ncc2c3c(N)nc(N)nc3ccc21`, 180 nM.
The molecule `COc1ccccc1N(C)CCNc1cc(C)nc(Nc2ccccc2)n1` registered an IC50 of 1070 nM.
Under `Cc1cccc2[nH]c(-c3cccc(-c4ccc(NC(=O)Nc5ccsc5)cc4)c3)nc12` stands 120 nM.
`COc1ccc(C(=O)N2CCC3(CC2)C(=O)N(CC(=O)NCC2CCCCC2)CN3c2ccccc2)c(OC)c1`: the IC50 is 120 nM.
Under `O=C(Nc1ccc(Cl)cc1)Nc1ccc2c(c1)N1CCN=C1S2` stands 590 nM.
Regarding `CN1CCC(Oc2ccc(CN3CC[C@H](NC(=O)c4ccc(Cl)c(Cl)c4)C3)cc2Cl)C1` (stereo partly specified), the IC50 stood at 880 nM.
Under `CC(=O)CSC(C=Cc1ccc(N(C)C)cc1)=Nc1ccccc1` stands 1120 nM.
`CCOC(=O)C(C(=O)OCC)c1nc(C)ns1` returned an IC50 of 470 nM.
Under `CCC(N)(C#Cc1ccc(-c2c(C)[nH]c(C)c(Br)c2=O)cc1)CC` stands 40 nM; under `CC[C@H](C)CNC(=O)c1cncc(-c2ccc(CNC3Cc4ccccc4C3)cc2)c1`, 830 nM.
Under `CCc1ccc(C2CCN(CCCCNC(=O)c3ccc(NC(=O)c4ccc(Cl)cc4)cc3)CC2)c(OC(C)=O)c1` stands 150 nM.
In the case of `COc1ccc(N2CCN(CCCCNC(=O)c3ccc(NC(=O)c4cc(Cl)cc(Cl)c4)cc3)CC2)c(OC)c1`, the IC50 was determined as 300 nM.
Take `O=C(NCc1ccco1)c1ccc(S(=O)(=O)c2ccc(Cl)cc2)cc1`: the IC50 came out at 450 nM.

The record behind these values is PubChem BioAssay AID2305 (GlaxoSmithKline (GSK), 2010).
